Source: article PMC4593073, “Non-invasive imaging and cellular tracking of pulmonary emboli by near-infrared fluorescence and positron-emission tomography” (Nature Communications, 2015)
Where no end group is shown, it is not given here.

How the values were obtained:
Cells grown on plastic = test: Uptake of the cell viability dye DRAQ7; type: cell-based; conditions: 50 μM, 2 hrs
Description: Discrimination between on and off states in PAR1–RIP observed in vitro translated in vivo. To gauge the interaction of RIP probes with cells, we measured their toxicity at ∼6- to 600-fold excess of the intended use in vivo. […] Inclusion of the highly specific thrombin inhibitor hirudin blocked these protease-dependent effects and confirmed the key role for thrombin in this process. Cells grown on plastic were incubated with […] pro-peptide to confirm that uptake of the fluorescent dye DRAQ7 only occurred in the protease-treated form (Supplementary Fig. 3a) not the pro-peptide alone (Supplementary Fig. 3b). Concentrations required to mediate toxicity in cell culture exceed those used in animal studies described below by several orders of magnitude, but provide a useful readout nonetheless.
Supplementary Figure 3 – The cellular effects of the active PAR1-RIP peptide. High-doses (50 μM) of the cleaved PAR1-RIP lead to
concentrations for extended periods of time (2 hrs). Scale bars, 20 µm.
(1 picture or pasted object on this page, not shown here)

thrombin (factor IIa) = biological target: T1, thrombin (factor IIa) (Homo sapiens, UniProt P00734); test: Peptide kinetics: proteolysis of the probe followed by HPLC/mass spectrometry; type: biochemical; conditions: HPLC, 37 °C, PBS pH 7.4, mean±s.d., n=3
T1 construct: Human clotting factors IIa (thrombin), VIIa, IXa, Xa, XIa, plasmin and aPC; purchased Haematologic Technologies
Excerpt: Comparison of the rates of protease-mediated hydrolysis of a tripeptide chromogenic substrate (P3–P1), quenched oligopeptide substrate (P4–P4′) and our PAR1–RIP probe (P4–P14′) emphasize the value of a larger surface area of interaction between enzyme and substrate in RIP probes. When substrates have limited potential contacts with the protease, and the majority of them are shared with homologous enzymes, their turnover is non-specific. For example, the chromogenic substrate d–Phe–Pro–Arg–paranitroanilide is not only an excellent substrate for thrombin but also for many other proteases (Fig. 3f). As substrate length increases to include four additional residues on the prime side of the scissile bond, specificity increases 10-fold (Fig. 3g). Inclusion of the 10 amino acids responsible for exosite binding to thrombin further increases the relative specificity eightfold and reduces the KM to a physiologically relevant value of 0.2±0.1 μM (mean±s.d., n=3; Fig. 3h). […]
Human clotting factors IIa (thrombin), VIIa, IXa, Xa, XIa, plasmin and aPC were obtained from Haematologic Technologies (Vermont, USA). Kinetics studies of probe digestion were measured by HPLC over the course of 1 h at 37 °C, using 10 nM of enzyme and 1 μM of PAR1–RIP in PBS (pH 7.4). […]

[1] = Acute toxicology: serum panel of hepatic and renal functions; type: in vivo, C57BL/6J mice; set-up: Phosphorus / Calcium: unit not given here; conditions: mean±s.e.m., n=3
Description: To address the safety profile of this novel functional imaging platform, PAR1–RIP probe was administered in C57BL/6J mice at a concentration threefold higher than used for the imaging studies (150 picomoles, 100 μl). […] The serum was pipetted into clean tubes and frozen before shipment to IDEXX BioResearch (Sacramento, CA) for a comprehensive panel of hepatic and renal functions. All tests were performed using an Olympus 5400 analyser. Measurements of the following enzymes and electrolytes were provided: alkaline phosphatase, alanine aminotransferase, aspartate aminotransferase, creatine phosphokinase, total protein, direct bilirubin, indirect bilirubin, total bilirubin, globulin, blood urea nitrogen, creatinine, cholesterol, glucose, calcium, phosphorus, bicarbonate, chloride, potassium, sodium and haemolysis index.
Toxicology results are presented as mean±s.e.m. Data were analysed using GraphPad Prism (GraphPad Software Inc., San Diego, CA) and statistical differences among experimental groups of animals were detected using one-way analysis of variance (ANOVA) followed by Dunnett’s post-test; P<0.05 was considered statistically significant.

[2] = mouse serum 6 hs after 150 picomoles
[3] = mouse serum 6 hs after 150 picomoles, marked *
[4] = mouse serum 48 hs after 150 picomoles
[5] = mouse serum 72hs after 150 picomoles
[6] = mouse serum 72hs after 150 picomoles, marked *

**Q.** With “FVQWFSKFLGKLLPR [thrombin-treated PAR1–RIP]” as the sequence, how does the “uptake of cell viability dye DRAQ7” value (Cells grown on plastic) read?
**A.** uptake of cell viability dyes including DRAQ7

**Q.** For “FVQWFSKFLGKLLPRSFLLQDPNDQYEPF [PAR1–RIP]”, which Km (thrombin (factor IIa)) is on record?
**A.** 0.2 ± 0.1 µM

**Q.** And the “Alanine Aminotransferase (ALT)” value [1, 2]?
**A.** 29.7±1.4 U/L

**Q.** What about the Albumin [1, 2] of the same sequence?
**A.** 2.7 ± 0.1 g/dL

**Q.** What about the “Aspartate Aminotransferase (AST)” value [1, 2] of the same sequence?
**A.** 61.7 ± 4.0 U/L

**Q.** What about the “Blood Urea Nitrogen (BUN)” value [1, 2] of the same sequence?
**A.** 27.0 ± 2.6 mg/dL

**Q.** What about the Calcium [1, 2] of the same sequence?
**A.** 9.1 ± 0.1

**Q.** And the Chloride [1, 2]?
**A.** 116.0 ± 0.6 mEq/ L

**Q.** What about the Cholesterol [1, 2] of the same sequence?
**A.** 79 ± 0.6 mg/dL

**Q.** And the Creatinine [1, 2]?
**A.** 0.2 ± 0.0 mg/dL

**Q.** What about the “Creatinine Phosphokinase (CPK)” value [1, 2] of the same sequence?
**A.** 144.7 ± 27.4 U/L

**Q.** What about the “Direct Bilirubin” value [1, 2] of the same sequence?
**A.** 0.0 ± 0.0 mg/dL

**Q.** And the Globulin [1, 2]?
**A.** 1.9 ± 0.0 g/dL

**Q.** And the Glucose [1, 2]?
**A.** 238.7 ± 2.9 mg/dL

**Q.** And the “Indirect Bilirubin” value [1, 2]?
**A.** 0.1 ± 0.0 mg/dL

**Q.** And the Phosphorus [1, 2]?
**A.** 6.9 ± 0.2

**Q.** What about the Potassium [1, 2] of the same sequence?
**A.** 4.7 ± 0.1 mEq/ L

**Q.** And the Sodium [1, 2]?
**A.** 152.3 ± 0.3 mEq/ L

**Q.** And the “Total Bilirubin” value [1, 2]?
**A.** 0.1 ± 0.0 mg/dL

**Q.** And the “Total Protein” value [1, 2]?
**A.** 4.6 ± 0.1 g/dL

**Q.** What about the Alkaline phosphatase [1, 3] of the same sequence?
**A.** 149.7 ± 12.8 U/L

**Q.** And the Bicarbonate [1, 3]?
**A.** 13.3 ± 0.3 mEq/ L

**Q.** And the “Alanine Aminotransferase (ALT)” value [1, 4]?
**A.** 26.3 ± 0.3 U/L

**Q.** And the Albumin [1, 4]?
**A.** 2.6 ± 0.1 g/dL

**Q.** And the Alkaline phosphatase [1, 4]?
**A.** 120.7 ± 6.4 U/L

**Q.** What about the “Aspartate Aminotransferase (AST)” value [1, 4] of the same sequence?
**A.** 57.6 ± 6.3 U/L

**Q.** What about the Bicarbonate [1, 4] of the same sequence?
**A.** 15.0 ± 0.0 mEq/ L

**Q.** What about the “Blood Urea Nitrogen (BUN)” value [1, 4] of the same sequence?
**A.** 23.7 ± 1.4 mg/dL

**Q.** What about the Calcium [1, 4] of the same sequence?
**A.** 9.0 ± 0.1

**Q.** What about the Chloride [1, 4] of the same sequence?
**A.** 110.3 ± 0.8 mEq/ L

**Q.** And the Creatinine [1, 4]?
**A.** 0.2 ± 0.0 mg/dL

**Q.** What about the “Creatinine Phosphokinase (CPK)” value [1, 4] of the same sequence?
**A.** 150.3 ± 38.0 U/L

**Q.** What about the “Direct Bilirubin” value [1, 4] of the same sequence?
**A.** 0.1 ± 0.0 mg/dL

**Q.** And the Globulin [1, 4]?
**A.** 2.0 ± 0.1 g/dL

**Q.** What about the Glucose [1, 4] of the same sequence?
**A.** 203.0 ± 3.5 mg/dL

**Q.** And the “Indirect Bilirubin” value [1, 4]?
**A.** 0.1 ± 0.0 mg/dL

**Q.** And the Phosphorus [1, 4]?
**A.** 6.8 ± 0.2

**Q.** What about the Potassium [1, 4] of the same sequence?
**A.** 4.6 ± 0.1 mEq/ L

**Q.** What about the Sodium [1, 4] of the same sequence?
**A.** 153.3 ± 0.9 mEq/ L

**Q.** And the “Total Bilirubin” value [1, 4]?
**A.** 0.12 ± 0.0 mg/dL

**Q.** What about the “Total Protein” value [1, 4] of the same sequence?
**A.** 4.6 ± 0.1 g/dL

**Q.** And the Cholesterol ([1]; mouse serum 48 hs after 150 picomoles, marked *)?
**A.** 84.3 ± 3.5 mg/dL

**Q.** What about the “Alanine Aminotransferase (ALT)” value [1, 5] of the same sequence?
**A.** 20.0±1.0 U/L

**Q.** What about the Albumin [1, 5] of the same sequence?
**A.** 2.6 ± 0.0 g/dL

**Q.** What about the Alkaline phosphatase [1, 5] of the same sequence?
**A.** 107.0 ± 7.8 U/L

**Q.** What about the “Aspartate Aminotransferase (AST)” value [1, 5] of the same sequence?
**A.** 53.7 ± 12.2 U/L

**Q.** What about the “Blood Urea Nitrogen (BUN)” value [1, 5] of the same sequence?
**A.** 26.7 ± 1.8 mg/dL

**Q.** What about the Calcium [1, 5] of the same sequence?
**A.** 9.1 ± 0.2

**Q.** What about the Chloride [1, 5] of the same sequence?
**A.** 110.3 ± 0.3 mEq/ L

**Q.** And the Cholesterol [1, 5]?
**A.** 82.7 ± 1.7 mg/dL

**Q.** What about the Creatinine [1, 5] of the same sequence?
**A.** 0.2 ± 0.0 mg/dL

**Q.** What about the “Creatinine Phosphokinase (CPK)” value [1, 5] of the same sequence?
**A.** 156.3 ± 67.7 U/L

**Q.** What about the “Direct Bilirubin” value [1, 5] of the same sequence?
**A.** 0.0 ± 0.0 mg/dL

**Q.** And the Globulin [1, 5]?
**A.** 1.9 ± 0.1 g/dL

**Q.** And the Glucose [1, 5]?
**A.** 268.0 ± 20.1 mg/dL

**Q.** What about the “Indirect Bilirubin” value [1, 5] of the same sequence?
**A.** 0.1 ± 0.0 mg/dL

**Q.** What about the Phosphorus [1, 5] of the same sequence?
**A.** 7.4 ± 0.2

**Q.** What about the Potassium [1, 5] of the same sequence?
**A.** 4.9 ± 0.2 mEq/ L

**Q.** And the “Total Bilirubin” value [1, 5]?
**A.** 0.1 ± 0.0 mg/dL

**Q.** What about the “Total Protein” value [1, 5] of the same sequence?
**A.** 4.6 ± 0.1 g/dL

**Q.** What about the Bicarbonate [1, 6] of the same sequence?
**A.** 18.3 ± 0.3 mEq/ L

**Q.** And the Sodium [1, 6]?
**A.** 150 ± 0.0 mEq/ L
